According to patent US8431593B2, “Heteroaryl amide derivatives” (H. Lundbeck A/S, priority 2006, dated 2013):
Read-outs that look alike come from different tables or passages of the source.

Biological target: T1, P2X7 receptor (Homo sapiens, UniProt Q99572)
T1 construct: host or cells: SH-SY5Y
T1 sequence (Q99572 1-595): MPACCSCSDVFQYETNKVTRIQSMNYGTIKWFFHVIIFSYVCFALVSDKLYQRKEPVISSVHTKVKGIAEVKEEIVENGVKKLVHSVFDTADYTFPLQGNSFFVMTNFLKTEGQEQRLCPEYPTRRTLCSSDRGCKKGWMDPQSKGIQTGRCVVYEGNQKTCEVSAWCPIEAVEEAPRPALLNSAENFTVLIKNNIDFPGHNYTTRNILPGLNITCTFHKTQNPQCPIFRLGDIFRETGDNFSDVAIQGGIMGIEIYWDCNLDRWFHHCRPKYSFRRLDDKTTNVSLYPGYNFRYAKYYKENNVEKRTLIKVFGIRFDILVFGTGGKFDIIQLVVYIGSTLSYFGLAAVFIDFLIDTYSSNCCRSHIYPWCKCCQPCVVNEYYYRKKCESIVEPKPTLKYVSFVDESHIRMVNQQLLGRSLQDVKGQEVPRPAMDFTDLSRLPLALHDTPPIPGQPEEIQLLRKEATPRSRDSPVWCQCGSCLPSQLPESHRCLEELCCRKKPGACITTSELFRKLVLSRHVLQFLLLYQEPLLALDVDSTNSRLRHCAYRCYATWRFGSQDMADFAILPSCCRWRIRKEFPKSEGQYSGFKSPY
Experiment: P2X7 calcium mobilization assay, high throughput, antagonist activity (Example 4A)
Type: cell-based
Procedure: One day prior to the experiment, cells are plated at a density of 100,000 cells/well in a 96 well black/clear TC plate (Corning® Costar®, Sigma-Aldrich Co., St. Louis, Mo.). […] After one hour dye incubation, wells are rinsed once with 50 μL assay solution, and are then incubated for an hour at room temperature with 100 μL assay solution containing the test compound. […] After the one hour incubation, plates are transferred to a FLIPR^TETRA instrument (Molecular Devices, Sunnyvale, Calif.) for calcium mobilization analysis.
First, the average maximum relative fluorescent unit (RFU) response from the negative control wells (no agonist) is subtracted from the maximum response detected for each of the other experimental wells. Second, average maximum RFU response is calculated for the positive control wells (agonist wells).

[1] = 50% decrease in the fluorescence response of cells exposed to 80 μM of 2′(3′)-O-(4-benzoyl-benzoyl)adenosine 5′-triphosphate, Example 4A, read-out: IC50

SMILES | IC50 [1] | other results
CC1(C)C2CC[C@H](CNC(=O)c3cccc4nc(CC(=O)O)cn34)C1C2 (stereo in doubt) [Compound 682, (5-{[(6,6-dimethylbicyclo[3.1.1]hept-2-yl)methyl]carbamoyl}imidazo[1,2-a]pyridin-2-yl)acetic acid] | < 2000 nM | 
CC(C)CC(CNC(=O)c1cccc2nc(CN3CC[C@@H](NC(=O)OC(C)(C)C)C3)cn12)C1CCCCC1 (stereo in doubt) [Compound 738, tert-butyl [1-({5-[(2-cyclohexyl-4-methylpentyl)carbamoyl]imidazo [1,2-a]pyridin-2-yl}methyl)pyrrolidin-3-yl]carbamate] | < 2000 nM | 
CC(C)N[C@@H]1CCN(C(=O)c2cn3c(NC(=O)CC45CC6CC(CC(C6)C4)C5)cccc3n2)C1 (stereo in doubt) [Compound 743, 2-adamantan-1-yl-N-(2-{[3-(isopropylamino)pyrrolidin-1-yl]carbonyl}imidazo[1,2-a]pyridin-5-yl)acetamide] | < 2000 nM | 
CC(C(=O)N1CC[C@@H](NC(=O)OC(C)(C)C)C1)c1cn2c(C(=O)NCC34CC5CC(CC(C5)C3)C4)cccc2n1 (stereo in doubt) [Compound 749, tert-butyl [1-(2-{5-[(adamantan-1-ylmethyl)carbamoyl]imidazo[1,2-a]pyridin-2-yl}propanoyl)pyrrolidin-3-yl]carbamate] | < 2000 nM | 
CC(C(=O)N1CCC[C@@H](NC(=O)OC(C)(C)C)C1)c1cn2c(C(=O)NCC34CC5CC(CC(C5)C3)C4)cccc2n1 (stereo in doubt) [Compound 750, tert-butyl [1-(2-{5-[(adamantan-1-ylmethyl)carbamoyl]imidazo[1,2-a]pyridin-2-yl}propanoyl)piperidin-3-yl]carbamate] | < 2000 nM | 
CC(C)CC(CNC(=O)c1cccc2nc(CN3CC[C@@H](N)C3)cn12)c1ccc(C(F)(F)F)cc1 (stereo in doubt) [Compound 763, 2-[(3-aminopyrrolidin-1-yl)methyl]-N-{4-methyl-2-[4-(trifluoromethyl)phenyl]pentyl}imidazo [1,2-a] pyridine-5-carboxamide] | < 2000 nM | 
CC(C)(C)OC(=O)N[C@@H]1CCN(Cc2cn3c(C(=O)NCC(CC4CC4)c4ccccc4)cccc3n2)C1 (stereo in doubt) [Compound 776, tert-butyl [1-({5-[(3-cyclopropyl-2-phenylpropyl)carbamoyl]imidazo[1,2-a]pyridin-2-yl}methyl)pyrrolidin-3-yl]carbamate] | < 2000 nM | 
CC(C)(C)OC(=O)N[C@@H]1CCN(Cc2cn3c(C(=O)NCC(CC4CCC4)c4ccccc4)cccc3n2)C1 (stereo in doubt) [Compound 777, tert-butyl [1-({5-[(3-cyclobutyl-2-phenylpropyl)carbamoyl]imidazo[1,2-a]pyridin-2-yl}methyl)pyrrolidin-3-yl]carbamate] | < 2000 nM | 
CC(C)(C)OC(=O)N[C@@H]1CCN(Cc2cn3c(C(=O)NCC(CC4CCCC4)c4ccccc4)cccc3n2)C1 (stereo in doubt) [Compound 784, tert-butyl [1-({5-[(3-cyclopentyl-2-phenylpropyl)carbamoyl]imidazo[1,2-a]pyridin-2-yl}methyl)pyrrolidin-3-yl]carbamate] | < 2000 nM | 
O=C(NCC12CC3CC(CC(C3)C1)C2)c1cccc2nccn12 [Compound 1, N-(adamantan-1-ylmethyl)imidazo[1,2-a]pyridine-5-carboxamide] |  | IC50 (SH-SY5Y cells, 50% decrease in fluorescence response to 80 μM BzATP, read-out: IC50): < 2000 nM
CCOC(=O)c1cn2c(C(=O)NCC34CC5CC(CC(C5)C3)C4)cccc2n1 [Compound 2, ethyl 5-[(adamantan-1-ylmethyl)carbamoyl]imi-dazo[1,2-a]pyridine-2-carboxylate] |  | IC50: < 2000 nM
O=C(NCC12CC3CC(CC(C3)C1)C2)c1cccc2nc(CO)cn12 [Compound 3, N-(adamantan-1-ylmethyl)-2-(hydroxymethyl)imi-dazo[1,2-a]pyridine-5-carboxamide] |  | IC50: < 2000 nM
CCOC(=O)Cc1cn2c(C(=O)NCC34CC5CC(CC(C5)C3)C4)cccc2n1 [Compound 4, ethyl {5-[(adamantan-1-ylmethyl)carbamoyl]imi-dazo[1,2-a]pyridin-2-yl}acetate] |  | IC50: < 2000 nM
